From US9000032B2, “Substituted cyclopentenes as therapeutic agents” (Allergan, Inc., priority 2013, dated 2015)
pEC50, pKi: −log10 of the molar value.

How the values were obtained:
hEP4/Gqs5 = molecular target: T1, hEP4/Gqs5 (Homo sapiens, UniProt P35408); experiment: FLIPR calcium signal, EP4; format: cell-based; settings: HEK-293(EBNA) hEP4/Gqs5, read-out: EP4 Ca2+ EC50
T1 construct: expressed in transfected cells
Experimental: (§1) HEK-293(EBNA) cells, stably expressing one type or subtype of recombinant human prostaglandin receptors (prostaglandin receptors expressed: hDP/Gqs5; hEP1, hEP2/Gqs5; hEP3A/Gqi5; hEP4/Gqs5; hFP; hIP; hTP), were cultured in 100 mm culture dishes in high-glucose DMEM medium containing 10% fetal bovine serum, 2 mM I-glutamine, 250 μg/ml geneticin (G418) and 200 μg/ml hygromycin B as selection markers, and 100 units/ml penicillin G, 100 μg/ml streptomycin and 0.25 μg/ml amphotericin B.
(§2) Cells were seeded at a density of 5×10^4 cells per well in Biocoat® Poly-D-lysine-coated black-wall, clear-bottom 96-well plates (Becton-Dickinson) and allowed to attach overnight in an incubator at 37° C. Cells were then washed two times with HBSS-HEPES buffer (Hanks Balanced Salt Solution without bicarbonate and phenol red, 20 mM HEPES, pH 7.4) using a Denley Cellwash plate washer (Labsystems). After 45 minutes of dye-loading in the dark, using the calcium-sensitive dye Fluo-4 AM at a final concentration of 2 μM, plates were washed four times with HBSS-HEPES buffer to remove excess dye leaving 100 μl, in each well. Plates were re-equilibrated to 37° C. for a few minutes.
(§3) Cells were excited with an Argon laser at 488 nm, and emission was measured through a 510-570 nm bandwidth emission filter (FLIPR™, Molecular Devices, Sunnyvale, Calif.). Drug solution was added in a 50 μL volume to each well to give the desired final concentration. The peak increase in fluorescence intensity was recorded for each well. On each plate, four wells each served as negative (HBSS-HEPES buffer) and positive controls (standard agonists: BW245C (hDP); PGE2(hEP1, hEP2/Gqs5; hEP3A/Gqi5; hEP4/Gqs5); PGF2α (hFP); carbacyclin (hIP); U-46619 (hTP), depending on receptor). The peak fluorescence change in each drug-containing well was then expressed relative to the controls.
(§4) Compounds were tested in a high-throughput (HTS) or concentration-response (CoRe) format. […]

hDP/Gqs5 = molecular target: T2, hDP/Gqs5 (Homo sapiens, UniProt Q13258); experiment: FLIPR calcium signal, DP; format: cell-based; settings: NA listed after 'NA:', read-out: OTHER RECEPTORS Ca2+ EC50: DP
T2 construct: expressed in transfected cells
T2 sequence (Q13258 1-359): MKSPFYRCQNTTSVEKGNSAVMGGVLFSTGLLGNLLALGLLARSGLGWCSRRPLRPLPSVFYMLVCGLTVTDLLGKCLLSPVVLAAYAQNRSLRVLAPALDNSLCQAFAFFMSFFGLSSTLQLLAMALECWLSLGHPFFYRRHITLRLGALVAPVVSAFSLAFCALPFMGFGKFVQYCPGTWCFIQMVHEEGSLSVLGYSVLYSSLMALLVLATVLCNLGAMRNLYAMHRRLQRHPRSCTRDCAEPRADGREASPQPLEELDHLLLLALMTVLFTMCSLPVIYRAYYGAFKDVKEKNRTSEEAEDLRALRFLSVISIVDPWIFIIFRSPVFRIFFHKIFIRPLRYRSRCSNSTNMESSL
Experimental: as §1, §2, §3, §4

hEP3A/Gqi5 = molecular target: T3, hEP3A/Gqi5 (Homo sapiens, UniProt P43115); experiment: FLIPR calcium signal, EP3; format: cell-based; settings: read-out: OTHER RECEPTORS Ca2+ EC50: EP3
T3 construct: expressed in transfected cells
T3 sequence (P43115 1-390): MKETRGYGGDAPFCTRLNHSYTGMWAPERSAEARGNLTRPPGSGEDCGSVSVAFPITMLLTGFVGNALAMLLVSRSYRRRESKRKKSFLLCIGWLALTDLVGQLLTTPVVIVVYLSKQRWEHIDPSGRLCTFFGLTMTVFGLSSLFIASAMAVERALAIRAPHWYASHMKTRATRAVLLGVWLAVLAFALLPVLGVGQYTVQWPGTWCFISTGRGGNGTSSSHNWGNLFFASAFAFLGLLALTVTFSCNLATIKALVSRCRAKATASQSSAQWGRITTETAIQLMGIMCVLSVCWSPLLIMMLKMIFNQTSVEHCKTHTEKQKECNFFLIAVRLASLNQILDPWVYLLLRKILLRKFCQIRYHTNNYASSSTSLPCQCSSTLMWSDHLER
Experimental: as §1, §2, §3
(§5) Compounds were tested in a high-throughput (HTS) or concentration-response (CoRe) format. In the HTS format, forty-four compounds per plate were examined in duplicates at a concentration of 10^−5 M. To generate concentration-response curves, four compounds per plate were tested in duplicates in a concentration range between 10^−5 and 10^−11. The duplicate values were averaged. In either, HTS or CoRe format each compound was tested on at least 3 separate plates using cells from different passages to give an n≧3.

EP4 receptors = molecular target: T4, EP4 receptors (Homo sapiens, UniProt P35408); experiment: Radioligand binding, [3H]PGE2, EP4; settings: [3H]PGE2 competition, HEK-293 cells expressing EP4; read-out: EP4 Ki EC50
T4 construct: expressed in transfected cells; membrane fraction
Experimental: (§6) HEK-293 cells stably expressing the human or feline FP receptor, or EP1, EP2, or EP4 receptors were washed with TME buffer, scraped from the bottom of the flasks, and homogenized for 30 sec using a Brinkman PT 10/35 polytron. TME buffer was added to achieve a final 40 ml volume in the centrifuge tubes (the composition of TME is 100 mM TRIS base, 20 mM MgCl2, […]; ION HCl is added to achieve a pH of 7.4).
(§7) The cell homogenate was centrifuged at 19000 rpm for 20 min at 4° C. using a Beckman Ti-60 rotor. The resultant pellet was resuspended in TME buffer to give a final 1 mg/ml protein concentration, as determined by Biorad assay. Radioligand binding competition assays vs. [^3H-]17-phenyl PGF2α (5 nM) were performed in a 100 μl volume for 60 min. Binding reactions were started by adding plasma membrane fraction. The reaction was terminated by the addition of 4 ml ice-cold TRIS-HCl buffer and rapid filtration through glass fiber GF/B filters using a Brandel cell harvester. The filters were washed 3 times with ice-cold buffer and oven dried for one hour.
(§8) [^3H-] PGE2 (specific activity 180 Ci mmol) was used as the radio ligand for EP receptors. [^3H] 17-phenyl PGF2α was employed for FP receptor binding studies. Binding studies employing EP1, EP2, EP4 and FP receptors were performed in duplicate in at least three separate experiments. A 200 μl assay volume was used. Incubations were for 60 min at 25° C. and were terminated by the addition of 4 ml of ice-cold 50 mM TRIS-HCl, followed by rapid filtration through Whatman GF/B filters and three additional 4 ml washes in a cell harvester (Brandel). Competition studies were performed using a final concentration of 5 nM [^3H]-PGE2, or 5 nM [^3H] 17-phenyl PGF2α and non-specific binding determined with 10^−5 M of unlabeled PGE2, or 17-phenyl PGF2α according to receptor subtype studied.

EP2 [1] = molecular target: T5, EP2 (Homo sapiens, UniProt P43116); experiment: Competition radioligand binding, [3H]PGE2, EP2; set-up: expressed in transfected cells; membranes or whole cells; settings: [3H]PGE2 competition, HEK 293 cells expressing human EP2
Experimental: Competition binding experiments were performed in a medium containing Hank's balanced salt solution, Hepes 20 mM, pH 7.3, membranes (˜[…] protein) or 2×10^5 cells from HEK 293 cells stably expressing human EP2 receptors, [^3H]PGE2 (10 nM) and various concentrations of test compounds in a total volume of 300 μl. Reaction mixtures were incubated at 23° C. for 60 min, and were filtered over Whatman GF IB filters under vacuum. Filters were washed three times with 5 ml ice-cold buffer containing 50 mM Tris/HCl (PH 7.3). Non-specific binding was estimated in the presence of excess unlabeled PGE2 (10 μM). Binding data fitted to the binding model for a single class of binding sites, using nonlinear regression analysis. IC50 values thus obtained were converted to Ki using the equation of Ki=(IC50/(1+[L]/KD) where [L] represents PGE2 concentration (10 nM) and KD the dissociation constant for [^3H]PGE2 at human EP2 receptors (40 nM).
as §6, §7, §8

hEP2/Gqs5 = molecular target: T6, hEP2/Gqs5 (Homo sapiens, UniProt P43116); experiment: FLIPR calcium signal, EP2; format: cell-based; settings: HEK-293(EBNA) hEP2/Gqs5, read-out: EP2 Ca2+ EC50
T6 construct: expressed in transfected cells
Experimental: as §1, §2, §3, §5

EP2 [2] = molecular target: T5, EP2; experiment: cAMP assay, HEK-EBNA cells expressing EP2; format: cell-based; set-up: expressed in transfected cells; host or cells: HEK-EBNA cells
Experimental: A 384-well drug plate was prepared to contain 6 test compounds, PGE2 and cAMP in 16 serial dilutions in triplicate, using a Biomek station. HEK-EBNA cells expressing a target PG receptor subtype (EP2 or EP4) were suspended in a stimulation buffer (HBSS, 0.1% BSA, 0.5 mM IBMX and 5 mM HEPES, pH 7.4) in a density of 10^4 cells/5 μL. The reaction was initiated by mixing 5 μL drug dilutions with 5 μL of HEK-EBNA cells in a well, carried out for 30 min at room temperature, and followed by the addition of 5 μL anti-cAMP acceptor beads in the control buffer with Tween-20 (25 mM NaCl, 0.03% Tween-20, 5 mM HEPES, pH 7.4). After 30 min in the dark at room temperature, the mixtures were incubated with 15 μL biotinylated-cAMP/strepavidin donor beads in Lysis/Detection buffer (0.1% BSA, 0.3% Tween-20 and 5 mM HEPES, pH 7.4) for 45 min at the room temperature. Fluorescence changes were read using a Fusion-alpha HT microplate reader.

T4 sequence (P35408 whole entry): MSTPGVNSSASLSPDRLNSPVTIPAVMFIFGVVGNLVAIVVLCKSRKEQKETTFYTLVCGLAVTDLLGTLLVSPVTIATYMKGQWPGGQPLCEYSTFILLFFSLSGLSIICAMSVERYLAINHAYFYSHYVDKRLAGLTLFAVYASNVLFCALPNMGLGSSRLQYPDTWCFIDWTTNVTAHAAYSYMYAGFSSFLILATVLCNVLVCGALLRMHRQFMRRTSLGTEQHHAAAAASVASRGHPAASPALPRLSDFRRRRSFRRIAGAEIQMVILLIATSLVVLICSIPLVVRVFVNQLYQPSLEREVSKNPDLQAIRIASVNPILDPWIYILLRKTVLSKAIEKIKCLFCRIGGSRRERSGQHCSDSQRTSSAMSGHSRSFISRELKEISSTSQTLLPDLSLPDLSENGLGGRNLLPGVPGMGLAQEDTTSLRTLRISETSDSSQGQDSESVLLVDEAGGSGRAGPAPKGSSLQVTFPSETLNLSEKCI
T1 sequence (P35408 whole entry): as above
T5 sequence (P43116 whole entry): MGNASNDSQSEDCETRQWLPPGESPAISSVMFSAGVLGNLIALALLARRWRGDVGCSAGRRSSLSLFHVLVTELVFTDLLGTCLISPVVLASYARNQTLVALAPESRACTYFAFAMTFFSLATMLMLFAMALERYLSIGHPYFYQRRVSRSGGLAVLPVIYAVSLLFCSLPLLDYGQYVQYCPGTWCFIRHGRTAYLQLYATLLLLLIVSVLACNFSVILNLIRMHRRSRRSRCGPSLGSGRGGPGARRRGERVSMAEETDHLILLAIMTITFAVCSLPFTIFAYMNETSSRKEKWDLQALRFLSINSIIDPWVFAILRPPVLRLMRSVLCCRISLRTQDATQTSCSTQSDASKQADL
T6 sequence (P43116 whole entry): as above

C#CC1=C(c2ccc(C(O)CCCCC)cc2)[C@@H](CCCc2ccc(C(=O)O)s2)CC1 (single isomer, unassigned) [compound 1]
pEC50 (hEP4/Gqs5): < 5.00 | pEC50 (hDP/Gqs5): 5.11 | pEC50 (hEP3A/Gqi5): 6.77 | pKi (EP4 receptors): 5.55 | pKi (EP2 [1]): 8.70 | pEC50 (hEP2/Gqs5): 7.32 | pEC50 (EP2 [2]): 9.70

C#CC1=C(c2ccc(C(O)CCCCC)cc2)[C@@H](CCCc2ccc(C(=O)O)s2)CC1 (single isomer, unassigned) [compound 2]
pEC50 (hDP/Gqs5): < 5.00 | pEC50 (hEP3A/Gqi5): 5.81 | pKi (EP4 receptors): 6.15 | pKi (EP2 [1]): 8.15 | pEC50 (hEP2/Gqs5): 7.66

CCCCCC(O)c1ccc(C2=C(C#CCO)CC[C@@H]2CCCc2ccc(C(=O)O)s2)cc1 (stereo partly shown) [compound 3]
pEC50 (hEP4/Gqs5): < 5.00 | pEC50 (hDP/Gqs5): 6.66 | pEC50 (hEP3A/Gqi5): 5.13 | pKi (EP4 receptors): 6.11 | pKi (EP2 [1]): 7.77 | pEC50 (hEP2/Gqs5): 9.30 | pEC50 (EP2 [2]): 8.82

CCCCCC(O)c1ccc(C2=C(C#Cc3ccccc3)CC[C@@H]2CCCc2ccc(C(=O)O)s2)cc1 (stereo partly shown) [compound 4]
pEC50 (hEP4/Gqs5): < 5.00 | pEC50 (hEP3A/Gqi5): 5.15 | pKi (EP4 receptors): 5.09 | pKi (EP2 [1]): 5.60 | pEC50 (hEP2/Gqs5): 6.29 | pEC50 (EP2 [2]): 6.85
